Source: the NIST ThermoML archive (doi:10.1016/j.fluid.2014.01.034)
Numbers after ± are expanded uncertainties.

Tests used:
[1] = for mass density: 348.15 K, 101.33 kPa, Liquid, Vibrating tube method; for Normal melting temperature: Crystal, DTA
[2] = Boiling temperature at pressure P; details: Liquid, Ebulliometric method (Recirculating still)
[3] = Molar enthalpy of transition or fusion; details: Crystal; DSC

## O=[N+]([O-])c1cccc(Cl)c1Cl [1,2-dichloro-3-nitrobenzene]
[1]
  mass density: 1533 ± 2 kg/m3
  Normal melting temperature: 61.8 ± 1.1 °C
[2]; 3.26 kPa
  Boiling temperature at pressure P: 148.61 ± 0.39 °C
[2]; 3.72 kPa
  Boiling temperature at pressure P: 151.73 ± 0.37 °C
[2]; 4.07 kPa
  Boiling temperature at pressure P: 153.89 ± 0.35 °C
[2]; 5.48 kPa
  Boiling temperature at pressure P: 161.26 ± 0.29 °C
[2]; 6.14 kPa
  Boiling temperature at pressure P: 164.16 ± 0.24 °C
[2]; 7.17 kPa
  Boiling temperature at pressure P: 168.22 ± 0.21 °C
[2]; 8.84 kPa
  Boiling temperature at pressure P: 174 ± 0.19 °C
[2]; 10.02 kPa
  Boiling temperature at pressure P: 177.31 ± 0.16 °C
[2]; 11.41 kPa
  Boiling temperature at pressure P: 180.98 ± 0.15 °C
[2]; 12.61 kPa
  Boiling temperature at pressure P: 183.86 ± 0.14 °C
[2]; 13.71 kPa
  Boiling temperature at pressure P: 186.30 ± 0.13 °C
[2]; 15.55 kPa
  Boiling temperature at pressure P: 190.1 ± 0.12 °C
[2]; 16.52 kPa
  Boiling temperature at pressure P: 191.88 ± 0.11 °C
[2]; 18.33 kPa
  Boiling temperature at pressure P: 195.16 ± 0.11 °C
[2]; 20.52 kPa
  Boiling temperature at pressure P: 198.69 ± 0.1 °C
[2]; 21.66 kPa
  Boiling temperature at pressure P: 200.30 ± 0.09 °C
[2]; 22.76 kPa
  Boiling temperature at pressure P: 201.89 ± 0.09 °C
[2]; 25.1 kPa
  Boiling temperature at pressure P: 205.06 ± 0.09 °C
[2]; 27.58 kPa
  Boiling temperature at pressure P: 208.17 ± 0.08 °C
[2]; 30.63 kPa
  Boiling temperature at pressure P: 211.69 ± 0.08 °C
[2]; 35.11 kPa
  Boiling temperature at pressure P: 216.38 ± 0.07 °C
[2]; 40.91 kPa
  Boiling temperature at pressure P: 221.76 ± 0.07 °C
[2]; 46.97 kPa
  Boiling temperature at pressure P: 226.77 ± 0.06 °C
[2]; 50.86 kPa
  Boiling temperature at pressure P: 229.71 ± 0.06 °C
[2]; 54.85 kPa
  Boiling temperature at pressure P: 232.54 ± 0.06 °C
[2]; 57.81 kPa
  Boiling temperature at pressure P: 234.64 ± 0.06 °C
[2]; 61.11 kPa
  Boiling temperature at pressure P: 236.77 ± 0.06 °C
[2]; 63.43 kPa
  Boiling temperature at pressure P: 238.11 ± 0.05 °C
[2]; 65.25 kPa
  Boiling temperature at pressure P: 239.22 ± 0.05 °C
[2]; 70.98 kPa
  Boiling temperature at pressure P: 242.53 ± 0.05 °C
[2]; 76.92 kPa
  Boiling temperature at pressure P: 245.8 ± 0.05 °C
[2]; 80.62 kPa
  Boiling temperature at pressure P: 247.66 ± 0.05 °C
[2]; 85.76 kPa
  Boiling temperature at pressure P: 250.19 ± 0.05 °C
[2]; 91.3 kPa
  Boiling temperature at pressure P: 252.79 ± 0.05 °C
[2]; 96.08 kPa
  Boiling temperature at pressure P: 254.94 ± 0.05 °C
[2]; 101.3 kPa
  Boiling temperature at pressure P: 257.18 ± 0.05 °C
[3]
  Molar enthalpy of transition or fusion: 5.33 ± 0.335 kcal/mol

## O=[N+]([O-])c1ccc(Cl)c(Cl)c1 [3,4-dichloro-1-nitrobenzene]
[1]
  mass density: 1533 ± 2 kg/m3
  Normal melting temperature: 42.2 ± 1.1 °C
[2]; 3.01 kPa
  Boiling temperature at pressure P: 143.59 ± 0.39 °C
[2]; 4.22 kPa
  Boiling temperature at pressure P: 151.87 ± 0.37 °C
[2]; 4.98 kPa
  Boiling temperature at pressure P: 156.10 ± 0.3 °C
[2]; 5.82 kPa
  Boiling temperature at pressure P: 160.09 ± 0.26 °C
[2]; 6.97 kPa
  Boiling temperature at pressure P: 164.90 ± 0.24 °C
[2]; 7.4 kPa
  Boiling temperature at pressure P: 166.54 ± 0.2 °C
[2]; 9.08 kPa
  Boiling temperature at pressure P: 172.28 ± 0.19 °C
[2]; 9.77 kPa
  Boiling temperature at pressure P: 174.29 ± 0.16 °C
[2]; 11.5 kPa
  Boiling temperature at pressure P: 178.94 ± 0.16 °C
[2]; 12.15 kPa
  Boiling temperature at pressure P: 180.66 ± 0.14 °C
[2]; 13.41 kPa
  Boiling temperature at pressure P: 183.46 ± 0.13 °C
[2]; 15.01 kPa
  Boiling temperature at pressure P: 186.98 ± 0.13 °C
[2]; 16.24 kPa
  Boiling temperature at pressure P: 189.28 ± 0.12 °C
[2]; 17.48 kPa
  Boiling temperature at pressure P: 191.66 ± 0.11 °C
[2]; 19.68 kPa
  Boiling temperature at pressure P: 195.37 ± 0.1 °C
[2]; 21.06 kPa
  Boiling temperature at pressure P: 197.53 ± 0.1 °C
[2]; 24.35 kPa
  Boiling temperature at pressure P: 202.28 ± 0.09 °C
[2]; 25.56 kPa
  Boiling temperature at pressure P: 203.78 ± 0.09 °C
[2]; 26.76 kPa
  Boiling temperature at pressure P: 205.32 ± 0.08 °C
[2]; 31.46 kPa
  Boiling temperature at pressure P: 210.79 ± 0.08 °C
[2]; 34.27 kPa
  Boiling temperature at pressure P: 213.8 ± 0.08 °C
[2]; 36.87 kPa
  Boiling temperature at pressure P: 216.33 ± 0.07 °C
[2]; 41.72 kPa
  Boiling temperature at pressure P: 220.8 ± 0.07 °C
[2]; 45.99 kPa
  Boiling temperature at pressure P: 224.32 ± 0.07 °C
[2]; 51.49 kPa
  Boiling temperature at pressure P: 228.52 ± 0.06 °C
[2]; 55.34 kPa
  Boiling temperature at pressure P: 231.23 ± 0.06 °C
[2]; 61.61 kPa
  Boiling temperature at pressure P: 235.37 ± 0.06 °C
[2]; 65.28 kPa
  Boiling temperature at pressure P: 237.58 ± 0.06 °C
[2]; 70.2 kPa
  Boiling temperature at pressure P: 240.51 ± 0.06 °C
[2]; 74.34 kPa
  Boiling temperature at pressure P: 242.70 ± 0.06 °C
[2]; 79.67 kPa
  Boiling temperature at pressure P: 245.50 ± 0.06 °C
[2]; 83.95 kPa
  Boiling temperature at pressure P: 247.64 ± 0.06 °C
[2]; 89.76 kPa
  Boiling temperature at pressure P: 250.37 ± 0.06 °C
[2]; 94.77 kPa
  Boiling temperature at pressure P: 252.61 ± 0.06 °C
[2]; 98.14 kPa
  Boiling temperature at pressure P: 254.08 ± 0.06 °C
[2]; 101.3 kPa
  Boiling temperature at pressure P: 255.44 ± 0.06 °C
[3]
  Molar enthalpy of transition or fusion: 4.24 ± 0.263 kcal/mol
